Reference: patent US8153431B2, “Compositions and methods for making mutations in cell lines and animals” (ABT Holding Company, priority 2001, dated 2012)

Columns and labels:
single copy HPRT gene = assay: Mutation rate by knockout of single copy HPRT gene (6-thioguanine selection) in Jurkat cells; format: cell-based, human
Excerpt: The ability to identify all genetic mutations that can create a phenotype requires that large numbers of mutations be created in as few cells as possible, and the high efficiency of ENU chemical mutagenesis is suited to this task. We set out to determine the ENU treatment needed to create 50-100 cell libraries in which all genes are mutated at least once (defined as a 1× knockout library) in Jurkat cells. To characterize the mutagenesis we measured both cell survival and the mutation rate in characterizing the optimal ENU treatment (Table I). Survival was determined by limiting dilution, and the mutation rate was estimated in the population of surviving clones based on the frequency of knocking out the single copy HPRT gene (assayed by the survival of such HPRT^− cells upon culture in the presence of 6-thioguanine). […]
• Jurkat cells were treated with 10 uM O-6-BG (Sigma) at 5×10^5 cells/ml for 16 hours at 37° C. in a humidified incubator with 5% CO2. […] Viability is determined by the lower density seeding based on number of wells containing growing colonies. […] Number of wells containing growing colonies in the presence of 6-TG was scored 7-10 days later. Mutation frequency is calculated as # of 6-TG resistant colony divided by # of viable cells seeded.

Jurkat cells = assay: Cell survival after ENU treatment (limiting dilution); format: cell-based, human; settings: 2 hours, with 10 uM O-6-BG
Excerpt: The ability to identify all genetic mutations that can create a phenotype requires that large numbers of mutations be created in as few cells as possible, and the high efficiency of ENU chemical mutagenesis is suited to this task. We set out to determine the ENU treatment needed to create 50-100 cell libraries in which all genes are mutated at least once (defined as a 1× knockout library) in Jurkat cells. To characterize the mutagenesis we measured both cell survival and the mutation rate in characterizing the optimal ENU treatment (Table I). Survival was determined by limiting dilution, and the mutation rate was estimated in the population of surviving clones based on the frequency of knocking out the single copy HPRT gene (assayed by the survival of such HPRT^− cells upon culture in the presence of 6-thioguanine). As shown in the table below, at an ENU dose of 0.2 mg/ml the mutation rate is 0.02 HPRT^− genes/cell and the 1× library size is therefore ˜50 cells. Creation of libraries of these densely mutagenized cells provides a genetically sensitized background in which small increments of further mutagenesis can create phenotypes by knocking out the sole remaining wild type alleles of ENU-mutated genes.
• Jurkat cells were treated with 10 uM O-6-BG (Sigma) at 5×10^5 cells/ml for 16 hours at 37° C. in a humidified incubator with 5% CO2. The pretreated cells were then incubated with desired concentration of ENU (Sigma) in the presence of O-6-BG for 2 hours at 37° C. with constant shaking. At the end of incubation cells were washed with 10-volume 1×PBS three times and resuspended in complete media with 10 uM O-6-BG. 24 hours later O-6-BG was washed off, cells were resuspended in complete media and seeded onto 96-well plate at 20 cells per well or 400-2000 cells per well. Cells were then cultured for 10 days. Viability is determined by the lower density seeding based on number of wells containing growing colonies. To determine mutation frequency, cells seeded at the higher density were used to select for Hprt-loss of function mutants in the presence of 40 uM 6-TG (Sigma). Number of wells containing growing colonies in the presence of 6-TG was scored 7-10 days later. Mutation frequency is calculated as # of 6-TG resistant colony divided by # of viable cells seeded.

Question: Which results are given for `CCN(N=O)C(N)=O` [ENU, N-ethyl-N-nitrosourea]?
Answer: mutation rate (single copy HPRT gene; ENU dose of 0.2 mg/ml, Jurkat): 0.02 HPRT^− genes/cell; genes in each cell with knockout in one copy (single copy HPRT gene; Jurkat clones after 0.2 mg/ml ENU mutagenesis): 1-3%; % survival (Jurkat cells; ENU 0.1 mg/ml): 1.83%; % survival (Jurkat cells; ENU 0.125 mg/ml): 0.93%; % survival (Jurkat cells; ENU 0.15 mg/ml): 1.08%; % survival (Jurkat cells; ENU 0.175 mg/ml): 0.88%; % survival (Jurkat cells; ENU 0.2 mg/ml): 0.29%; % survival (Jurkat cells; ENU 0.25 mg/ml): 0.07%
